The record followed here is US6399310B1, “Methods for improving the therapeutic response of humans having major depression and carrying the gene for apolipoprotein E4” (Akzo Nobel N.V., priority 2001, dated 2002).

Type in all cases: in vivo, human
Assay [1] relates to patients 65 years of age and older with major depression. Put plainly: Clinical Global Impression Scale (CGI) in 8-week double-blind comparison. The following applies: day 14. An excerpt: Clinical Global Impression Scale (CGI) (Guy, W., ECDEU Assessment Manual for Psychopharmacology, DHEW Publication No. (ADM) 76-338, rev. 1976). The CGI scale is a global 7-point rating of the severity of the illness taking into account the preceding week (CGI-Severity) and a global 7-point rating of the clinical status of the subject since baseline (CGI-Change). A responder is defined as being “Much Improved” or “Very Much Improved” —having a CGI score of at least 2 according to CGI-Change. Thus, a higher CGI-Severity score corresponds to more severe depression whereas a higher CGI-Change score corresponds to lessened depression, or an improvement in alleviating the symptoms of depression.
(§1) All statistical analyses were performed using the SAS software package (available from SAS Institute). For clinical measures of depression (HDRS-21, HDRS-17, GDS, and CGI), analyses of covariance were performed with baseline values as the covariate, and apoE genotype (ε4 allele carrier vs. non-carrier) and medication (mirtazapine, paroxetine) as the predictors. For remitter and responder analyses of clinical measures of depression, Cochran-Mantel-Haenszel statistics were used. For comparison of medication and genotype groups on baseline demographic measures, two-way analyses of variance were used.

For assay [2] the test system is unchanged. The experiment in a line: Geriatric Depression Scale (GDS) in 8-week double-blind comparison. As to the method:
Geriatric Depression Scale (GDS) (Yesavage, J. A. et al., J. Psychiatr. Res. 17:37-49, 1983), a self-rating scale developed specifically for rating depression in the elderly. In the GDS, a lower rating signifies less depression. GDS 50% responders are defined as subjects with a decrease on a post-baseline assessment of at least 50% as compared to baseline.
as §1

For assay [3] the test system is unchanged. Put plainly: Hamilton Depression Rating Scale (HDRS-17 / HDRS-21) in 8-week double-blind comparison of paroxetine and mirtazapine.
Source text: Hamilton Depression Rating Scale (HDRS; 17 and 21 item versions of a structured interview) (Hamilton, M., J. Neurol. Neurosurg. Psychiatr. 23:56-62, 1960; Hamilton, M., Br. J. Soc. Clin. Psychol. 6:278-296, 1967). […] In other words, a lower rating in the HDRS scale signifies less depression. In contrast, HDRS remitters, which are those patients showing the least depression, are defined as subjects who have an HDRS-17 score of less than 7 at a post-baseline visit.
as §1

Where [4] appears, read: day 14, Caucasian subjects, p=0.006.

Consider `CN1CCN2c3ncccc3Cc3ccccc3C2C1` (stereo not shown) [mirtazapine, 1,2,3,4,10,14b-hexahydro-2-methylpyrazino[2,1-a]pyrido[2,3-c]benzazepine], for which the “CGI scores, ε4 carriers compared with noncarriers” value in assay [1] (Caucasian subjects) is given as “significantly better”. In addition, in assay [1] (Caucasian subjects, p=0.037), the “CGI scores, mirtazapine treated compared with paroxetine treated subjects” value is reported as “significantly better”. Further, in assay [1] (full cohort), the “CGI scores, mirtazapine-treated compared with paroxetine-treated patients” value was “Significantly greater improvement”. For the same molecule, in assay [2] (day 14, Caucasian subjects), the “GDS scores, ε4 carriers compared with noncarriers” value is on record as “significantly lower”. For the same molecule, the “GDS scores, effect of ε4 allele” value in assay [2] (day 14, full cohort) was “large decrease in GDS scores”. The “HDRS-17 scores, mirtazapine-treated compared with paroxetine-treated patients” value in assay [3] (day 7, full cohort) is “significantly greater improvement”. Besides, the “HDRS scores, ε4 carriers compared with noncarriers” value in assay [3] (day 14, Caucasian subjects) was “greater improvement”. Moreover, in assay [3] (setting [4]), the “mean HDRS-17 scores, mirtazapine compared with paroxetine” value is listed as “significantly lower” and the “mean HDRS-21 scores, mirtazapine compared with paroxetine” value is given as “significantly lower”. In addition, in assay [3] (day 14, full cohort), the “HDRS-17 scores, mirtazapine-treated compared with paroxetine-treated patients” value was “Significantly greater improvement” and the “HDRS-21 scores, mirtazapine-treated compared with paroxetine-treated patients” value is reported as “Significantly greater improvement”. Besides, the “HDRS-17 50% responders, ε4 carriers compared with non-ε4 carriers” value in assay [3] (day 14, full cohort, p=0.049) is “significantly more”.
In the case of `Fc1ccc([C@@H]2CCNC[C@H]2COc2ccc3c(c2)OCO3)cc1` [paroxetine], the “CGI scores, ε4 carriers compared with noncarriers” value in assay [1] (Caucasian subjects) is recorded as “no differences”. Also, the “GDS scores, effect of ε4 allele” value in assay [2] (day 14, full cohort) is recorded as “no significant difference”. The “50% reduction in GDS score, ε4 carriers compared with noncarriers” value in assay [2] (day 28, full cohort) is listed as “no effect of apoE genotype”. For the same molecule, the “HDRS scores, ε4 carriers compared with noncarriers” value in assay [3] (day 14, Caucasian subjects) is recorded as “lees improvement”.
